Results: US11219636B2, “Compositions and methods for treating cancer” (priority 2015, dated 2022)

Key:
p53 target genes = experiment: Transcription of p53 target genes, Western blot and semi-quantitative PCR; assay type: cell-based, human; conditions: 50 μM, 24 hours, HCT116 p53 WT cells
Method: FIGS. 14A-C are Western blot analyses of p53 (FIG. 14A), p21 (FIG. 14B) and Tubulin (FIG. 14C) of HCT116 cells after treatment with 5FU. HCT116 cells were treated with 50 μM 5FU for 24 hours. Then, total cell lysate was prepared and subjected to Western blot analysis for p53 (FIG. 14A) and p21 (FIG. 14B) analysis. Tubulin (FIG. 14C) was used as a loading control and in the analyses of both proteins for normalization.
FIGS. 15A-B depict mRNA levels of various transcripts following treatment of HCT116 cells with 5FU. HCT116 cells were treated with 50 μM 5FU for 24 hours. Then, RNA was prepared and used as a template for cDNA and semi-quantitative PCR was performed for the following transcripts: p21, Bax, Noxa, Puma, MDM2, 14-3-3o, CD95, Btg2, GADD45, and Survivin. The graph represents the quantification of mRNA levels performed using the primers listed in Table 2 in the EXAMPLES section which follows.
Further validation of endogenous p53 activation led the present inventors to test other canonical target genes. 5-FU (50 μM) was added to HCT116 p53 WT cells for 24 hours. Total cell lysate was prepared and subjected into Western blot analysis and at the same time RNA was prepared and used as a template for cDNA and semi-quantitative PCR was performed. […] In particular a tight correlation between p21 and p53 protein levels (FIGS. 14A-C).

p53 = p53 transcription activity by GFP reporter in HCT116 cells transfected with RGC-mazE-IRES-GFP plasmid; assay type: cell-based, human
Method: In order to test the ability of p53 to bind to its responsive element and stimulate transcription, HCT116 cells were transfected with RGC-mazE-IRES-GFP plasmid. Since p53 is degraded in un-activated cells, the present inventors used Quercetin, a ubiquitous bioactive plant flavonoid that is able to induce p53 phosphorylation, stabilization and total p53 protein accumulation. Another widely used p53 inducer is the antimetabolite agent 5-FU. P53 transcription activity was evaluated by measuring the expression of the downstream reporter gene, GFP.

O=c1[nH]cc(F)c(=O)[nH]1 [5-FU]
cell toxicity (HCT116 cells; even very high doses (data not shown)): no toxicity
mRNA and protein of p53 target genes (p53 target genes): up regulation
GFP expression (p53; 10 μM, compared with Quercetin): significantly higher expression levels of GFP

O=c1c(O)c(-c2ccc(O)c(O)c2)oc2cc(O)cc(O)c12 [Quercetin]
cell toxicity (cell death) (HCT116 cells; transfected HCT116 cells): 60%
increase of GFP expression (p53; 50 μM): about 10 folds
